{"source": "patent US20170314056A1", "about": "“METHOD OF USING NEAR INFRARED FLUORESCENT DYES FOR IMAGING AND TARGETING CANCERS” (priority 2010, published 2017)", "key": {"[1]": {"assay": "Systemic toxicity of IR-783 in C57BL/6 mice", "type": "in vivo, mouse", "details": "normal C57BL/6 mice", "experimental": "The systemic toxicity of IR-783 was investigated in C57BL/6 mice (National Cancer Institute, Frederick, Md.) by injecting the dye by an i.p. route. The mice (N=8 per group) were subdivided into 4 groups and received PBS as control and IR-783 i.p. injection daily at the following doses: 0.375 mg/kg (imaging dose), 3.75 mg/kg and 37.5 mg/kg. […] The histomorphologic appearance of their vital organs was assessed at the time of sacrifice."}, "[2]": {"tested_on": "mouse pancreatic cancer cell lines (PDAC2.3, PDAC3.3, BTC3 and BTC4)", "assay": "Uptake of NIR dyes by mouse pancreatic cancer cell lines", "type": "cell-based", "details": "PDAC2.3, PDAC3.3, BTC3, BTC4; 20 μM dye"}, "[3]": {"details": "aqueous media; cited from earlier work"}, "ARCaPM cells": {"tested_on": "ARCaPM cells", "assay": "Detection of prostate cancer cells in human blood", "type": "cell-based", "experimental": "An experimental model of evaluating human prostate cancer cells in blood was developed. In brief, heparinized whole blood from human volunteers was collected according to an Emory University approved IRB protocol. A known number of human prostate cancer cells (10-1,000) were added to 1 ml of whole blood, mixed gently with 20 μM IR-783 and incubated for 30 minutes at 37° C. The mononuclear cells and cancer cells were recovered by gradient centrifugation using Histopaque-1077 (Sigma, St. Louis, Mo.). The isolated live cells were observed under a confocal fluorescence microscope."}, "[4]": {"tested_on": "human renal tumor tissues", "assay": "In vitro fluorescence imaging of freshly harvested human renal tumor tissues", "type": "cell-based", "details": "fresh nephrectomy specimens; 20 µM dye, 37° C., 30 minutes", "experimental": "Kidney tumor tissue samples were collected from 5 patients immediately after tumor nephrectomy according to an Emory approved IRB protocol. All 5 patients had histologically confirmed renal cell carcinoma of the clear cell type. The tissues were excised from tumor area, normal area and the area of tumor and normal adjacent on the kidney removed. All above procedures were conducted on ice and the excised tissues were stored at 4° C. Each incised tissue was cut into three pieces and were incubated with 20 µM IR-783 dye, 20 µM IR-780 and PBS, respectively, at 37° C. for 30 minutes. The dye solutions were removed and the tissues were washed five times by PBS. Optical imaging was done using Kodak Imaging Station Imaging System (see above).\nTo determine dye uptake in tissues, tissues cut from incised kidney samples (described above) tumor were placed in OTC medium and frozen at −80° C. These frozen tissues were retrieved for histopathologic sections cut to 5 Lm thickness for pathologic observation under a confocal microscope as described above."}, "[5]": {"tested_on": "human renal cancer cells (SN12C)", "assay": "Detection of renal cancer cells in blood by NIR imaging and flow cytometry", "type": "cell-based", "details": "SN12C cells spiked into whole blood; 20 μM IR-783", "experimental": "Citrated whole mouse blood samples were collected from same inbred athymic nude mice. A known number of human renal cancer cells (SN12C) were added into 3 ml whole mouse blood, and mixed gently with 20 μM IR-783 and incubated for 30 minutes at 37° C. The mononuclear cells and cancer cells were recovered by gradient centrifugation using Histopaque-1077 (Sigma, St. Louis, Mo.) and then diluted with 0.5 ml of 1% paraformaldehyde to inhibit further activation. A sample incubated with PBS served as negative isotype control. The isolated live cells were observed under a Leica TCS SP confocal microscope (Leica Microsystems, Heidelberg, Germany) and samples were excited with 670 nm. All samples were analyzed within 1 hrs of collection in a Becton Dickinson LSRII flow cytometer (Becton Dickinson Biosciences, San Jose, Calif.) with a red laser diode (640 nm) for excitation and cy7 detector for detection and with LYSIS II software."}, "human bladder tumors": {"tested_on": "human bladder tumors", "assay": "Uptake in freshly harvested human bladder tumor specimens", "type": "cell-based", "excerpt": "The inventors determined the ability of IR-783 as an imaging agent for freshly harvested human renal and bladder cancer specimens. […] Fresh tumor xenografts grown in mice (FIG. 35) are able to uptake the dye. […] The nature of this uptake at this time is not clear."}}, "note": "Entries after “also recorded” stand apart in the source; their conditions may differ.", "data": [{"substance": "2-[2-[2-Chloro-3-[2-[1,3-dihydro-3,3-dimethyl-1-(4-sulfobutyl)-2H-indol-2-ylidene]-ethylidene]-1-cyclohexen-1-yl]-ethenyl]-3,3-dimethyl-1-(4-sulfobutyl)-3H-indolium [IR-783]", "values": [{"measurement": "effect on body weights", "setting": "[1]", "result": "did not affect body weights"}, {"measurement": "histopathology of vital organs at the time of sacrifice", "setting": "[1]", "result": "No abnormal histopathology"}, {"measurement": "systemic toxicity", "setting": "[1]; i.p. daily 0.375, 3.75 and 37.5 mg/kg, one month", "result": "no systemic toxicity"}, {"measurement": "uptake of dye by mouse pancreatic cancer cell lines", "setting": "[2]", "result": "taken up by other malignant cells from both human and mouse; also recorded: significant uptake"}, {"measurement": "maximum absorption", "setting": "[3]", "result": 782, "unit": "nm"}, {"measurement": "fewest cancer cells detected in whole blood", "setting": "ARCaPM cells; ARCaPM cells (10 to 1,000) added to 1 ml whole blood", "result": "10 cancer cells per milliliter"}, {"measurement": "visualization / dye uptake of cancer cells mixed with human blood", "setting": "ARCaPM cells; ARCaPM cells, 20 μM IR-783, 30 minutes, 37° C.", "result": "clearly visualized; also recorded: Significant uptake and retention"}, {"measurement": "signal in mononuclear cells", "setting": "ARCaPM cells; human blood, 20 μM IR-783", "result": "hardly showed any signals"}, {"measurement": "dye uptake in human renal tumor tissue", "setting": "[4]", "result": "can be taken up; also recorded: significant uptake; also recorded: strong IR-783 uptake"}, {"measurement": "dye uptake in normal kidney tissue", "setting": "[4]", "result": "substantial low uptake; also recorded: undetectable; also recorded: not in normal kidney tissues"}, {"measurement": "signal in tumor tissues compared with IR-780 and PBS", "setting": "[4]", "result": "stronger signals in tumor tissues than the IR-780 and PBS group"}, {"measurement": "flow cytometry discrimination of stained cancer cells", "setting": "[5]", "result": "totally identified from normal lymphocytes"}, {"measurement": "visualization of cancer cells in blood under NIR imaging", "setting": "[5]", "result": "clearly visualized"}, {"measurement": "dye uptake in normal tissue", "setting": "human bladder tumors; freshly harvested bladder specimens", "result": "to a much lesser extent by normal tissue"}, {"measurement": "dye uptake by fat cells and tissues", "setting": "human bladder tumors; freshly harvested specimens", "result": "can also be taken up by fatty tissues; also recorded: also taken up by fat cells and tissues"}, {"measurement": "dye uptake in human bladder tumor tissue", "setting": "human bladder tumors; freshly harvested specimens", "result": "can be taken up; also recorded: taken up by tumor tissues"}]}]}
